Measurements from patent publication US6184396A, “Triazole derivative or salt thereof, preparation process thereof and pharmaceutical containing said compound as an effective ingredient” (SSP Co., Ltd., priority 1998, dated 2001).
In brackets after ≈: the same amount, converted by molar mass.

How the values were obtained:
[1] = test system: A. fumigatus IFM 40808; test: Test 2: Action against Aspergillus fumigatus (in vitro); assay type: cell-based; settings: IFM40808, 0.165M MOPS-containing RPMI 1640, pH 7, almar Blue, 35° C., 48 hours
Description: Test 2: Action against Aspergillus fumigatus (in vitro)
They were incubated at 35° C. for 48 hours.

[2] = test system: C. albicans IFM 40009; test: Test 3: Action against Candida albicans (in vivo); design: species or system C. albicans; mice (ICR (CRJ: CD-1), male, 4-week-old); settings: mice infected i.v. with C. albicans, 1.25 mg/kg oral, 1 hour after inoculation then once a day for 4 days from 24 hours; for Surviving mice on Day 14, number of surviving mice/total number in group: control 0/11; for Average Survival days: control 4.5 days, *** p < 0.001 relative to control
Description: Test 3: Action against Candida albicans (in vivo)
After 4-week-old, male, ICR (CRJ: CD-1) mice were fasted for 6 hours, C. albicans IFM 40009 was inoculated to the tail vein of each of the mice to give an amount of 3.0×10^6 cells/mouse, whereby infection was caused. A control group consisted of 11 mice, while a medicament-administered group consisted of 5 mice. The medicament dissolved in 20% polyethylene glycol was orally administered 1 hour after the inoculation of the fungus and from 24 hours after the inoculation, it was administered once a day for 4 straight days, each in an amount of 1.25 mg/kg. The survival condition on Day 14 after the infection was compared. In addition, the survival days of the control group and the medicament-administered group were detected by the Kaplan-Meier method (Cox mantel test). Incidentally, Fluconazole was employed as a medicament for comparison.

[3] = test system: C. albicans ATCC 44859; test: Test 1: Action against Candida albicans (in vitro); assay type: cell-based; settings: ATCC44859, minimum concentration with apparent suppression of mycelial type growth vs medicament-free control, MEM medium + 10% fetal bovine serum, 37° C., 24 hours, CO2, read-out: Terminal point C. albicans
Description: Test 1: Action against Candida albicans (in vitro)
The resulting mixture was incubated at 37° C. for 24 hours in a CO2 gas incubator. After incubation, a morphological change of C. albicans was observed under an inverted microscope. The minimum medicament concentration permitting the apparent suppression of mycerial type growth compared with that of a medicament-free control was designated as a terminal point (ng/ml).

MIC [1]	MIC [3]	Structure (SMILES)	Surviving mice on Day 14, number of surviving mice/total number in group [2]	Average Survival days [2]
8 µg/mL (≈ 21.1 µM)	0.0313 µg/mL	O=S(=O)(C1CC1)C(F)(F)C(O)(Cn1cncn1)c1ccc(F)cc1F (racemic) [Example 12, 1-(cyclopropylsulfonyl)-2-(2,4-difluorophenyl)-1,1-difluoro-3-(1H-1,2,4-triazol-1-yl)-2-propanol]	4/5	14.00 days
2 µg/mL (≈ 5.27 µM)	0.0156 µg/mL	O=S(=O)(C1CC1)C(F)(F)C(O)(Cn1cncn1)c1ccc(F)cc1F (single isomer, unassigned; (-)) [Example 17(2), (-)-1-(Cyclopropylsulfonyl)-2-(2,4-difluorophenyl)-1,1-difluoro-3-(1H-1,2,4-triazol-1-yl)-2-propanol]		
2 µg/mL (≈ 5.76 µM)	0.0078 µg/mL	OC(Cn1cncn1)(c1ccc(F)cc1F)C(F)(F)SC1CC1 (stereo not drawn) [Example 7, 1-(cyclopropylthio)-2-(2,4-difluorophenyl)-1,1-difluoro-3-(1H-1,2,4-triazol-1-yl)-2-propanol]		
8 µg/mL (≈ 24.3 µM)	0.0156 µg/mL	OC(Cn1cncn1)(c1ccc(F)cc1)C(F)(F)SC1CC1 (stereo not drawn) [Example 8, 1-(cyclopropylthio)-1,1-difluoro-2-(4-fluorophenyl)-3-(1H-1,2,4-triazol-1-yl)-2-propanol]		
32 µg/mL (≈ 88.6 µM)	0.0313 µg/mL	COC(Cn1cncn1)(c1ccc(F)cc1F)C(F)(F)SC1CC1 (stereo not drawn) [Example 10, 1-[3-(cyclopropylthio)-2-(2,4-difluorophenyl)-3,3-difluoro-2-methoxypropyl]-1H-1,2,4-triazole]		
		COC(Cn1cncn1)(c1ccc(F)cc1F)C(F)(F)S(=O)(=O)C1CC1 (stereo not drawn) [Example 15, 1-[3-(cyclopropylsulfonyl)-2-(2,4-difluorophenyl)-3,3-difluoro-2-methoxypropyl]-1H-1,2,4-triazole]	4/5	13.4 days

Structure (SMILES)	MIC [1]	MIC [3]	Surviving mice on Day 14, number of surviving mice/total number in group [2]	Average Survival days [2]
OC(Cn1cncn1)(Cn1cncn1)c1ccc(F)cc1F [Fluconazole, reference compound]	> 128 µg/mL	0.25 µg/mL	1/5	11.0 days
